Experiments:
[1] = system: A. baumannii (ATCC 17978); test: Checkerboard potentiation assay with novobiocin; assay type: cell-based; details: with novobiocin
Protocol: (§1) Bacterial strains and culture conditions. The following bacterial strains were used within this study; A. baumannii (ATCC 17978), K. pneumoniae (ATCC 43816), K. pneumoniae (ATCC 43816, expressing pGDP2:mcr-1), P. aeruginosa (PA01). Bacterial growth was in cation-adjusted Mueller-Hinton broth (MHB) at 37° C., and inoculum was prepared according to CLSI protocol (CLSI 2015).
(§2) Potentiation assays. Checkerboard analyses were conducted with each drug serially diluted at eight concentrations to create an 8×8 matrix. At least two biological replicates were done for each combination, and the means were used for FIC calculation. The FIC for each drug was calculated by dividing the concentration of the drug in the presence of codrug in a combination for a well showing <10% growth by the MIC for that drug alone. The FIC index (FICI) is the sum of the two FICs, with an FIC index≤0.5 deemed synergistic.

[2] = system: K. pneumoniae (ATCC 43816); test: Checkerboard potentiation assay with novobiocin; assay type: cell-based
Protocol: as §1, §2
(§3) To probe the spectrum of activity of the present analogs beyond A. baumannii, their interactions with novobiocin were assessed against the high-priority Gram-negative pathogens Klebsiella pneumoniae and P. aeruginosa (FIG. 5).

P. aeruginosa (PA01) = test: Checkerboard potentiation assay with novobiocin; assay type: cell-based
Protocol: as §1, §2, §3

LPS from E. coli EH100 = test: BODIPY-Cadaverine LPS displacement assay; assay type: binding; details: for LPS Displacement (EC50, μg/mL): BODIPY-cadaverine displacement from E. coli EH100 LPS
Protocol: BODIPY-Cadaverine LPS displacement assay. The BODIPY-cadaverine LPS displacement assay was performed as previously described (Wood et al. 2004. Combinatorial Chemistry & High Throughput Screening, 7: 239-49; Klobucar et al. 2021. ACS Chemical Biology, 16: 929-42). A solution of BODIPY-cadaverine (2.25 μM) and LPS from E. coli EH100 (5.25 μM) in Tris-HCl buffer (50 mM, pH 7.4) was prepared. 0.5 μL of compound and 49.5 μL of the Tris-HCl buffer with BODIPY-cadaverine and LPS solution were added to a Corning nonbinding surface black 384-well polystyrene plate. Fluorescence intensity was measured immediately with an excitation wavelength of 580 nm and an emission wavelength of 620 nm. EC50 values were calculated using a three-parameter logistic curve in GraphPad Prism 9.

[3] = HEK293 cytotoxicity assay (Cell Titer Glo); assay type: cell-based; details: human, HEK293T Cytotoxicity (IC50, μg/mL)
Protocol: Cytotoxicity Assays. HEK293 (ATCC CRL 1573) cells were left to adhere for 18 h at 7.5×10^3 cells per well in DMEM containing 10% FBS and 2 mM L-glutamine. Compound was added directly into the well. After 48 h of treatment Promega Cell Titer Glo 2.0® was added, shaken for 10 min, and luminescence read (Biotek Neo). AC50 values were calculated using a four-parameter logistic curve in GraphPad Prism 9.
Focusing on only the analogs that retained synergistic activity with novobiocin (FICI≤0.5), half-maximal activity (AC50) values were calculated against HEK293 cells using a CellTiter-Glo® based assay to approximate cell viability. […] Specifically, the FICI value for both P35 and P36 was 0.094 against A. baumannii, while their AC50 values were 235 μg/mL and 200 μg/mL, respectively.

A. baumannii ATCC 17978 = test: Systemic A. baumannii murine infection model; assay type: in vivo, mouse
Protocol: Mouse infection models. Animal experiments were conducted according to guidelines set by the Canadian Council on Animal Care using protocols approved by the Animal Review Ethics Board at McMaster University under Animal Use Protocol #20-12-43. Before infection, mice were relocated at random from a housing cage to treatment or control cages. No animals were excluded from analyses, and blinding was considered unnecessary. Seven- to nine-week-old female C57BL/6 mice (Charles River) were infected intraperitoneally with ˜2×10^6 CFU of A. baumannii ATCC 17978, with 5% porcine mucin (Sigma-Aldrich). Infections were allowed to establish for 2 h, and treatments were administered intraperitoneally. For the survival study, the clinical endpoint was determined using a five-point body condition score analyzing weight loss, decrease in body temperature, respiratory distress, hampered mobility and hunched posture. Experimental endpoint was defined as five days post-infection for mice not reaching clinical endpoint. For CFU/mL enumeration, animals were infected as described above and euthanized 6 h post-infection, and blood was collected into sterile 2 ml heparinized tubes (BD Scientific) serially diluted in PBS and plated onto solid LB. Plates were incubated overnight at 37° C., and colonies were quantified to determine bacterial load.
This was directly compared to the activity of P35 and P36 in this model (all administered at 10 mg/kg) in combination with novobiocin (50 mg/kg).
For this experiment the same A. baumannii infection model was used, however, endpoint was defined as 6 h post-infection, at which point blood was collected for CFU/mL enumeration (FIG. 2b).

Row | Molecule | FICI AB [1] | FICI KP [2] | FICI PA (P. aeruginosa (PA01)) | LPS Displacement (EC50, μg/mL) (LPS from E. coli EH100) | IC50 at 48 h [3] | Increase of LPS binding affinity compared to pentamidine (LPS from E. coli EH100; BODIPY displacement EC50 relative to pentamidine) | Animals rescued in combination with novobiocin (A. baumannii ATCC 17978; 10 mg/kg analog + 50 mg/kg novobiocin i.p. 2 h post-infection, endpoint 5 days) | Impact on blood CFU/mL, treatment alone (A. baumannii ATCC 17978; alone, 6 h post-infection, compared to control-treated animals)
1 | N=C(N)c1ccc(OCCC2(CCOc3ccc(C(=N)N)cc3)CCCC2)cc1 [Analog P02] | 0.156 | 0.187 | 0.281 | 77.29 µg/mL | 15.3 µg/mL | – | – | –
2 | N=C(N)c1ccc(OCCC2(CCOc3ccc(C(=N)N)cc3)CCCCC2)cc1 [Analog P03] | 0.094 | 0.078 | 0.625 | – | – | – | – | –
3 | N=C(N)c1ccc(OCCC2(CCOc3ccc(C(=N)N)cc3)CCCCCC2)cc1 [Analog P04] | 0.14 | 0.25 | 0.531 | 15.97 µg/mL | 37.1 µg/mL | – | – | –
4 | CC(C)(CCOc1ccc(C(=N)N)cc1)CCOc1ccc(C(=N)N)cc1 [Analog P06] | 0.187 | 0.156 | 0.375 | 62.47 µg/mL | 69.1 µg/mL | – | – | –
5 | CCC(CC)(CCOc1ccc(C(=N)N)cc1)CCOc1ccc(C(=N)N)cc1 [Analog P07] | 0.0625 | 0.156 | 1 | 19.04 µg/mL | 31.2 µg/mL | > 10 fold | – | –
6 | N=C(N)c1ccc(OC2CCC(Oc3ccc(C(=N)N)cc3)CC2)cc1 (centres unmarked) [Analog P08] | 0.375 | 0.25 | 2 | 288.7 µg/mL | > 160 µg/mL | – | – | –
7 | c1c[nH]c(-c2ccc(OCCCCCOc3ccc(-c4ncc[nH]4)cc3)cc2)n1 [Analog P11] | – | 2 | 2 | – | 104 µg/mL | – | – | –
8 | N=C(N)c1ccc(OCCCCCOc2ccc(C(=N)N)cc2F)c(F)c1 [Analog P12] | 0.187 | 0.187 | 0.5 | 63.21 µg/mL | 95.5 µg/mL | – | – | –
9 | C[C@@H](CCC[C@H](C)Oc1ccc(C(=N)N)cc1)Oc1ccc(C(=N)N)cc1 [Analog P15A] | – | 0.25 | 0.5 | 118.2 µg/mL | 106 µg/mL | – | – | –
10 | C[C@H](CCC[C@H](C)Oc1ccc(C(=N)N)cc1)Oc1ccc(C(=N)N)cc1 [Analog P15B] | – | 0.187 | 0.187 | 132.5 µg/mL | 239 µg/mL | – | – | –
11 | C[C@H](CCC[C@@H](C)Oc1ccc(C(=N)N)cc1)Oc1ccc(C(=N)N)cc1 [Analog P15C] | – | 0.25 | 0.375 | 148.8 µg/mL | – | – | – | –
12 | CC(CCCC(C)Oc1ccc(C(=N)N)cc1)Oc1ccc(C(=N)N)cc1 (centres unmarked) [Analog P15] | – | 0.25 | 0.281 | – | – | – | – | –
13 | N=C(N)c1ccc(OCCCCCOc2ccc(C(=N)N)nc2)cn1 [Analog P16] | 0.25 | 0.375 | 1 | 60.19 µg/mL | 183 µg/mL | – | – | –
14 | N=C(NC1CCCCC1)c1ccc(OCCCCCOc2ccc(C(=N)NC3CCCCC3)nc2)cn1 [Analog P18] | – | 1 | 2 | 218.8 µg/mL | 22.2 µg/mL | – | – | –
15 | N/C(=N\O)c1ccc(OCCCCCOc2ccc(/C(N)=N/O)nc2)cn1 [Analog P19] | – | 2 | 2 | – | 135 µg/mL | – | – | –
16 | N=C(N)c1ccc(OCCCCCOc2ccc(C(=N)N)cn2)nc1 [Analog P20] | 0.25 | 0.25 | 2 | – | > 320 µg/mL | – | – | –

Row | Molecule | FICI AB [1] | FICI KP [2] | FICI PA (P. aeruginosa (PA01)) | LPS Displacement (EC50, μg/mL) (LPS from E. coli EH100) | IC50 at 48 h [3] | Increase of LPS binding affinity compared to pentamidine (LPS from E. coli EH100; BODIPY displacement EC50 relative to pentamidine) | Animals rescued in combination with novobiocin (A. baumannii ATCC 17978; 10 mg/kg analog + 50 mg/kg novobiocin i.p. 2 h post-infection, endpoint 5 days) | Impact on blood CFU/mL, treatment alone (A. baumannii ATCC 17978; alone, 6 h post-infection, compared to control-treated animals)
17 | N=C(N)c1ccc(OCCC2CCCCC2CCOc2ccc(C(=N)N)cc2)cc1 (centres unmarked) [Analog P21] | 0.094 | 0.046 | 1 | 13.08 µg/mL | 19.2 µg/mL | – | – | –
18 | C[C@@H](CCCOc1ccc(C(=N)N)cc1)COc1ccc(C(=N)N)cc1 [Analog P22R] | – | 0.25 | 0.3125 | 26.02 µg/mL | 94.2 µg/mL | – | – | –
19 | C[C@H](CCCOc1ccc(C(=N)N)cc1)COc1ccc(C(=N)N)cc1 [Analog P22S] | – | 0.25 | 0.375 | 59.08 µg/mL | 53.7 µg/mL | – | – | –
20 | N=C(N)c1ccc(OCCC[C@@H]2CCCN(c3ccc(C(=N)N)cc3)C2)cc1 [Analog P24A] | – | 0.187 | 0.375 | 91.74 µg/mL | 77.9 µg/mL | – | – | –
21 | N=C(N)c1ccc(OCCC[C@H]2CCCN(c3ccc(C(=N)N)cc3)C2)cc1 [Analog P24B] | – | 0.187 | 0.75 | 149.5 µg/mL | 57.9 µg/mL | – | – | –
22 | N=C(N)c1ccc(OCCC2(CCOc3ccc(C(=N)N)cc3)CCC(C(=O)O)CC2)cc1 (centres unmarked) [Analog P30] | 0.625 | 1 | 2 | 119.4 µg/mL | 1100 µg/mL | – | – | –
23 | N=C(N)c1ccc(OCCNCCOc2ccc(C(=N)N)cc2)cc1 [Analog P31A] | 0.5 | – | 2 | 497.8 µg/mL | > 640 µg/mL | – | – | –
24 | N=C(N)c1ccc(OCC2(COc3ccc(C(=N)N)cc3)CCCCC2)cc1 [Analog P31] | 0.094 | 0.0937 | 0.187 | 43.82 µg/mL | 73.5 µg/mL | – | – | –
25 | N=C(N)c1ccc(OCCN(CCOc2ccc(C(=N)N)cc2)CCC(F)(F)F)cc1 [Analog P34] | 0.25 | – | 0.375 | 134.3 µg/mL | > 80 µg/mL | – | – | –
26 | N=C(N)c1ccc(OCCN(CCOc2ccc(C(=N)N)cc2)Cc2ccccc2)cc1 [Analog P36] | 0.094 | – | 0.5 | 165.9 µg/mL | 200 µg/mL | – | 80% | –
27 | N=C(N)c1ccc(OCCC(N)CCOc2ccc(C(=N)N)cc2)cc1 (centres unmarked) [Analog P37] | 0.75 | – | 2 | – | – | – | – | –
28 | N=C(N)c1ccc(OCCC(CCOc2ccc(C(=N)N)cc2)N2CCCC2)cc1 (centres unmarked) [Analog P38] | 0.75 | – | 2 | 202 µg/mL | > 80 µg/mL | – | – | –
29 | N=C(N)c1ccc(OCCC2(CCOc3ccc(C(=N)N)cn3)CCCC2)nc1 [Analog P39] | 0.094 | – | 0.3125 | 48.34 µg/mL | 53.7 µg/mL | – | – | –
30 | CO[C@@H]1[C@@H](OC(N)=O)[C@@H](O)[C@H](Oc2ccc3c(O)c(NC(=O)c4ccc(O)c(CC=C(C)C)c4)c(=O)oc3c2C)OC1(C)C [novobiocin, reference compound] | – | – | – | – | – | – | – | no significant impact
31 | colistin [reference compound] | – | – | – | 7.81 µg/mL | – | – | – | –
